Test results from article PMC12423301, “Astrocytic monoamine oxidase B (MAOB)–gamma-aminobutyric acid (GABA) axis as a molecular brake on repair following spinal cord injury” (Signal Transduction and Targeted Therapy, 2025).

Columns and labels:
[1] = system: primary cultured spinal cord astrocytes; assay: BDNF expression in cultured astrocytes (qPCR, Western blot); format: cell-based, mouse
[2] = similar drugs; ref ZELAPAR®, XADAGO®; cited from earlier work
[3] = system: APP/PS1 transgenic mice; assay: Cognitive tests in APP/PS1 transgenic mice; format: in vivo, mouse; conditions: 4-week repeated dosing test
[4] = system: APP/PS1 transgenic mice; assay: Tonic GABA current, neuronal firing and DAO compensation in APP/PS1 mice; format: in vivo, mouse; conditions: 4-week repeated dosing test

Compound	mRNA expression level of BDNF ([1]; GABA 100 μM, 24 h)	proBDNF expression (Western blotting) ([1]; GABA-treated)	Tmax [2]	cognitive function [3]	neuronal firing ([4]; 2nd week)	neuronal firing ([4]; 4th week)
NCCCC(=O)O [GABA, γ-aminobutyric acid]	significantly downregulated	reduction	–	–	–	–
C#CCN(C)[C@H](C)Cc1ccccc1 [selegiline, reference compound]	–	–	45 min	cognitive function decline	started to decrease	completely lost
